Laboratory results taken from US12655116B2, “Substituted isophthalic acid diamides” (Bayer Aktiengesellschaft, priority 2020, dated 2026).

Experiments:
MATIN [1] = experiment: Post-emergence herbicidal action against MATIN; assay type: in vivo, Matricaria inodora; settings: dosage 20 g/ha
How it was run: (§1)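 Visual % rating (0% = as untreated, 100% = dead) ~3 wk after spraying one-leaf-stage plants grown in sandy loam; WP/EC in water at 600–800 l/ha, 0.2% wetting agent.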

VIOTR [2] = experiment: Pre-emergence herbicidal action against VIOTR; assay type: in vivo, Viola tricolor
How it was run: (§2)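 Sandy loam pots, seeds covered with soil, then surface-treated with WP or EC formulations at 600–800 l/ha water plus 0.2% wetting agent. Greenhouse, 3 weeks. Percent damage vs untreated controls.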

DIGSA [3] = experiment: Post-emergence herbicidal action against DIGSA; assay type: in vivo, Digitaria sanguinalis; settings: 20 g/ha
How it was run: as §1

AVEFA [4] = experiment: Pre-emergence herbicidal action against AVEFA; assay type: in vivo, Avena fatua; settings: 80 g/ha, pre-emergence
How it was run: as §2

VERPE [5] = experiment: Pre-emergence herbicidal action against VERPE; assay type: in vivo, Veronica persica
How it was run: as §2

ABUTH [6] = experiment: Pre-emergence herbicidal action against ABUTH; assay type: in vivo, Abutilon theophrasti; settings: for Pre-emergence action against ABUTH (herbicidal activity): 80 g/ha, scored visually after 3 weeks vs untreated controls (100% = plants have died, 0% = like control plants); for Pre-emergence action against ABUTH (herbicidal activity in percent): dosage 20 g/ha, scored visually after 3 weeks vs untreated controls, 100% = plants have died, 0% = like control plants
How it was run: as §2

ABUTH [7] = experiment: Post-emergence herbicidal action against ABUTH; assay type: in vivo, Abutilon theophrasti; settings: visual assessment about 3 weeks after treatment vs untreated controls
How it was run: as §1

MATIN [8] = experiment: Pre-emergence herbicidal action against MATIN; assay type: in vivo, Matricaria inodora
How it was run: as §2

AVEFA [9] = experiment: Post-emergence herbicidal action against AVEFA; assay type: in vivo, Avena fatua; settings: visual assessment about 3 weeks after treatment, 100% = plants have died, 0% = like control plants
How it was run: as §1

PHBPU [10] = experiment: Post-emergence herbicidal action against PHBPU; assay type: in vivo, Pharbitis purpurea; settings: dosage 20 g/ha
How it was run: as §1

POLCO = experiment: Pre-emergence herbicidal action against POLCO; assay type: in vivo, Polygonum convolvulus; settings: dosage 80 g/ha
How it was run: as §2

AMARE [11] = experiment: Pre-emergence herbicidal action against AMARE; assay type: in vivo, Amaranthus retroflexus
How it was run: as §2

DIGSA [12] = experiment: Pre-emergence herbicidal action against DIGSA; assay type: in vivo, Digitaria sanguinalis
How it was run: as §2

ALOMY [13] = experiment: Pre-emergence herbicidal action against ALOMY; assay type: in vivo, Alopecurus myosuroides; settings: 80 g/ha, pre-emergence, scored visually after 3 weeks vs untreated controls (100% = plants have died, 0% = like control plants)
How it was run: as §2

ECHCG [14] = experiment: Post-emergence herbicidal action against ECHCG; assay type: in vivo, Echinochloa crus-galli
How it was run: as §1

ECHCG [15] = experiment: Pre-emergence herbicidal action against ECHCG; assay type: in vivo, Echinochloa crus-galli
How it was run: as §2

SETVI [16] = experiment: Pre-emergence herbicidal action against SETVI; assay type: in vivo, Setaria viridis; settings: dosage 80 g/ha
How it was run: as §2

SETVI [17] = experiment: Post-emergence herbicidal action against SETVI; assay type: in vivo, Setaria viridis
How it was run: as §1

ALOMY [18] = experiment: Post-emergence herbicidal action against ALOMY; assay type: in vivo, Alopecurus myosuroides; settings: dosage 20 g/ha, visual assessment about 3 weeks after treatment vs untreated controls
How it was run: as §1

AMARE [19] = experiment: Post-emergence herbicidal action against AMARE; assay type: in vivo, Amaranthus retroflexus; settings: 20 g/ha, visual assessment about 3 weeks after treatment, 100% = plants have died, 0% = like control plants
How it was run: as §1

PHBPU [20] = experiment: Pre-emergence herbicidal action against PHBPU; assay type: in vivo, Pharbitis purpurea; settings: dosage 80 g/ha
How it was run: as §2

VERPE [21] = experiment: Post-emergence herbicidal action against VERPE; assay type: in vivo, Veronica persica; settings: 20 g/ha
How it was run: as §1

VIOTR [22] = experiment: Post-emergence herbicidal action against VIOTR; assay type: in vivo, Viola tricolor
How it was run: as §1

[23] = 20 g/ha, scored visually after 3 weeks vs untreated controls, 100% = plants have died, 0% = like control plants
[24] = 80 g/ha, scored visually after 3 weeks vs untreated controls (100% = plants have died, 0% = like control plants)

**Q.** How did the “Post-emergence action against MATIN in %” value (MATIN [1]) turn out when `CCn1nnnc1NC(=O)c1ccc(C(F)(F)F)c(C(=O)NCC2CC2)c1C` [Example 2-28] was run?
**A.** The value was 80%.

**Q.** And the “Pre-emergence action against VIOTR in %” value (VIOTR [2]; dosage 20 g/ha)?
**A.** The value was 100%.

**Q.** And the “Pre-emergence action against VIOTR in %” value (VIOTR [2]; dosage 80 g/ha)?
**A.** Its value is 100%.

**Q.** What about the “Post-emergence action against DIGSA” value (DIGSA [3]) of the same compound?
**A.** The value was 80%.

**Q.** And the “Pre-emergence action against AVEFA in %” value (AVEFA [4])?
**A.** Its value is 90%.

**Q.** What about the “Pre-emergence action against VERPE in %” value (VERPE [5]; dosage 80 g/ha) of the same compound?
**A.** Its value is 80%.

**Q.** And the “Pre-emergence action against ABUTH (herbicidal activity)” value (ABUTH [6])?
**A.** Its value is 100%.

**Q.** And the “Pre-emergence action against ABUTH (herbicidal activity in percent)” value (ABUTH [6])?
**A.** Its value is 100%.

**Q.** And the “Post-emergence action against ABUTH in %” value (ABUTH [7]; dosage 5 g/ha)?
**A.** The value was 80%.

**Q.** What about the “Post-emergence action against ABUTH in %” value (ABUTH [7]; dosage 20 g/ha) of the same compound?
**A.** Its value is 80%.

**Q.** What about the “Pre-emergence action against MATIN in %” value (MATIN [8]; dosage 20 g/ha) of the same compound?
**A.** Its value is 100%.

**Q.** And the “Pre-emergence action against MATIN in %” value (MATIN [8]; dosage 80 g/ha)?
**A.** The value was 100%.

**Q.** What about the “Post-emergence action at 5 g/ha against AVEFA in %” value (AVEFA [9]; 5 g/ha) of the same compound?
**A.** The value was 80%.

**Q.** And the “Post-emergence action at 20 g/ha against AVEFA in %” value (AVEFA [9])?
**A.** Its value is 90%.

**Q.** What about the “Post-emergence action against PHBPU in %” value (PHBPU [10]) of the same compound?
**A.** The value was 80%.

**Q.** What about the “Pre-emergence action against POLCO in %” value (POLCO) of the same compound?
**A.** Its value is 90%.

**Q.** What about the “Pre-emergence action against AMARE in %” value (AMARE [11]; [23]) of the same compound?
**A.** The value was 100%.

**Q.** And the “Pre-emergence action against AMARE in %” value (AMARE [11]; [24])?
**A.** The value was 100%.

**Q.** What about the “Pre-emergence action against DIGSA in %” value (DIGSA [12]; dosage 20 g/ha) of the same compound?
**A.** Its value is 100%.

**Q.** What about the “Pre-emergence action against DIGSA in %” value (DIGSA [12]; dosage 80 g/ha) of the same compound?
**A.** The value was 100%.

**Q.** What about the “Pre-emergence action against ALOMY (herbicidal activity)” value (ALOMY [13]) of the same compound?
**A.** The value was 90%.

**Q.** What about the “Post-emergence action against ECHCG in %” value (ECHCG [14]; dosage 5 g/ha) of the same compound?
**A.** Its value is 80%.

**Q.** What about the “Post-emergence action against ECHCG in %” value (ECHCG [14]; dosage 20 g/ha) of the same compound?
**A.** Its value is 80%.

**Q.** And the “Pre-emergence action against ECHCG in %” value (ECHCG [15]; 20 g/ha)?
**A.** The value was 80%.

**Q.** And the “Pre-emergence action against ECHCG in %” value (ECHCG [15]; 80 g/ha)?
**A.** Its value is 100%.

**Q.** What about the “Pre-emergence action against SETVI in %” value (SETVI [16]) of the same compound?
**A.** The value was 100%.

**Q.** What does the source list for `CCn1nnnc1NC(=O)c1ccc(C(F)F)c(C(=O)NCC(F)F)c1Br` [Example 2-230]?
**A.** Pre-emergence action against VIOTR in % (VIOTR [2]; dosage 20 g/ha): 90%; Pre-emergence action against VIOTR in % (VIOTR [2]; dosage 80 g/ha): 100%; Post-emergence action against DIGSA (DIGSA [3]): 90%; Pre-emergence action against AVEFA in % (AVEFA [4]): 80%; Pre-emergence action against VERPE in % (VERPE [5]; dosage 80 g/ha): 100%; Pre-emergence action against ABUTH (herbicidal activity) (ABUTH [6]): 100%; Pre-emergence action against ABUTH (herbicidal activity in percent) (ABUTH [6]): 100%; Post-emergence action against SETVI in % (SETVI [17]; dosage 20 g/ha): 100%; Post-emergence action against ABUTH in % (ABUTH [7]; dosage 20 g/ha): 80%; Post-emergence action against ALOMY in % (ALOMY [18]): 90%; Pre-emergence action against MATIN in % (MATIN [8]; dosage 20 g/ha): 90%; Pre-emergence action against MATIN in % (MATIN [8]; dosage 80 g/ha): 100%; Post-emergence action at 20 g/ha against AVEFA in % (AVEFA [9]): 80%; Pre-emergence action against AMARE in % (AMARE [11]; [23]): 100%; Pre-emergence action against AMARE in % (AMARE [11]; [24]): 100%; Pre-emergence action against DIGSA in % (DIGSA [12]; dosage 20 g/ha): 100%; Pre-emergence action against DIGSA in % (DIGSA [12]; dosage 80 g/ha): 100%; Post-emergence action at 20 g/ha against AMARE in % (AMARE [19]): 100%; Pre-emergence action against PHBPU in % (PHBPU [20]): 80%; Post-emergence action against VERPE in % (VERPE [21]): 90%; Pre-emergence action against ECHCG in % (ECHCG [15]; 80 g/ha): 90%; Pre-emergence action against SETVI in % (SETVI [16]): 90%

**Q.** What does the source list for `CCn1nnnc1NC(=O)c1ccc(C(F)(F)F)c(C(=O)NCC2CC2)c1SC` [Example 2-84]?
**A.** Post-emergence action against VIOTR in % (VIOTR [22]; 5 g/ha): 100%; Post-emergence action against VIOTR in % (VIOTR [22]; 20 g/ha): 100%; Post-emergence action against MATIN in % (MATIN [1]): 80%; Pre-emergence action against VIOTR in % (VIOTR [2]; dosage 20 g/ha): 80%; Pre-emergence action against VIOTR in % (VIOTR [2]; dosage 80 g/ha): 100%; Pre-emergence action against AVEFA in % (AVEFA [4]): 100%; Pre-emergence action against VERPE in % (VERPE [5]; dosage 20 g/ha): 80%; Pre-emergence action against VERPE in % (VERPE [5]; dosage 80 g/ha): 80%; Pre-emergence action against ABUTH (herbicidal activity) (ABUTH [6]): 100%; Pre-emergence action against ABUTH (herbicidal activity in percent) (ABUTH [6]): 100%; Post-emergence action against SETVI in % (SETVI [17]; dosage 5 g/ha): 80%; Post-emergence action against SETVI in % (SETVI [17]; dosage 20 g/ha): 100%; Post-emergence action against ABUTH in % (ABUTH [7]; dosage 20 g/ha): 90%; Post-emergence action against ALOMY in % (ALOMY [18]): 90%; Pre-emergence action against MATIN in % (MATIN [8]; dosage 20 g/ha): 100%; Pre-emergence action against MATIN in % (MATIN [8]; dosage 80 g/ha): 100%; Post-emergence action at 20 g/ha against AVEFA in % (AVEFA [9]): 100%; Post-emergence action against PHBPU in % (PHBPU [10]): 80%; Pre-emergence action against AMARE in % (AMARE [11]; [23]): 100%; Pre-emergence action against AMARE in % (AMARE [11]; [24]): 100%; Post-emergence action at 20 g/ha against AMARE in % (AMARE [19]): 100%; Pre-emergence action against PHBPU in % (PHBPU [20]): 90%; Pre-emergence action against ALOMY (herbicidal activity) (ALOMY [13]): 90%; Post-emergence action against ECHCG in % (ECHCG [14]; dosage 5 g/ha): 100%; Post-emergence action against ECHCG in % (ECHCG [14]; dosage 20 g/ha): 100%; Post-emergence action against VERPE in % (VERPE [21]): 80%; Pre-emergence action against ECHCG in % (ECHCG [15]; 20 g/ha): 90%; Pre-emergence action against ECHCG in % (ECHCG [15]; 80 g/ha): 100%; Pre-emergence action against SETVI in % (SETVI [16]): 100%
